Test results reported in patent publication US8263606B2 (Xenon Pharmaceuticals Inc., priority 2008, dated 2012).

Legend:
[1] = test system: sodium channel; test: Guanidine influx assay (14C-guanidine radiotracer flux, in vitro); type: cell-based, human or rat; details: guanidine influx assay using a known cell line that expresses a sodium channel
Method in brief: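 Sodium channel block is measured as reduced 14C-guanidine uptake in cells stably expressing human or rat channels, stimulated with aconitine. Potency is given as IC50 from a four-parameter curve.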

[2] = biological target: CYP3A4 (Homo sapiens, UniProt P08684); test: Cytochrome P450 (CYP450) Inhibition Assay, CYP3A4 (Vivid fluorescence, BOMCC substrate); details: human, P450 Baculosomes (recombinant CYP3A4), probe BOMCC (Vivid substrate)
Sequence of CYP3A4 (P08684 whole entry): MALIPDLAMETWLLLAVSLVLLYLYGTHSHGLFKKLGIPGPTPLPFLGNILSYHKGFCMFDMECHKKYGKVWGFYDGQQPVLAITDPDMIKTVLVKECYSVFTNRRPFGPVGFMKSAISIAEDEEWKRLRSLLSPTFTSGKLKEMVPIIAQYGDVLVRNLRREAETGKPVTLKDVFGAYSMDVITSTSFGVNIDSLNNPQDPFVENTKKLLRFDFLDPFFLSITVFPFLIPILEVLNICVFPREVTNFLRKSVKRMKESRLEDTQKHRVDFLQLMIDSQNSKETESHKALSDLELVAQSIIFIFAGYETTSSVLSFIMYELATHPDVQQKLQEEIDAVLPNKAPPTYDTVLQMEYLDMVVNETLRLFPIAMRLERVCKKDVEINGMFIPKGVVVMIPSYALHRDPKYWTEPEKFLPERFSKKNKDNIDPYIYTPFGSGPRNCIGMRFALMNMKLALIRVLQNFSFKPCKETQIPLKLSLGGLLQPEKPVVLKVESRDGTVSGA

[3] = test system: inactivated state of the channel of interest (sodium channel); test: Electrophysiological assay (whole cell voltage clamp, in vitro); type: cell-based; details: affinity for the inactivated state of the channel of interest
Method in brief: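 Whole-cell voltage clamp at ambient temperature on stably transfected cells; CsF-based pipette, pH 7.4 NaCl bath. Current blockade measured at holding potentials of −120 mV (resting, Kr) and one giving 10% availability (inactivated, Ki), held ≥10 s to equilibrate; apparent Kd calculated from fractional block.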

| Compound | melting point [°C] | IC50 ([1]; activity level class) [µM] | inhibition at 10 µM [2] [%] | Ki [3] [µM] | IC50 [1] [µM] |
| --- | --- | --- | --- | --- | --- |
| O=C1N(Cc2ccc(C(F)(F)F)o2)c2cc3c(cc2C12COc1cc4c(cc12)OCCO4)OCCO3 (stereo not drawn) [Example 2.27, 6-((5-(trifluoromethyl)furan-2-yl)methyl)-2,3,3′,7′-tetrahydro-2′H-spiro[[1,4]dioxino[2,3-f]indole-8,8′-benzofuro[5,6-b][1,4]dioxin]-7(6H)-one] | 176 to 178 | 0.1 to 1 | > 50 | < 0.3 | – |
| O=C1N(CC2CCCCO2)c2ccccc2C12COc1cc3c(cc12)OCCO3 (stereo not drawn) [Example 4.38, 1′-(tetrahydro-2H-pyran-2-ylmethyl)-2,3-dihydrospiro[furo[2,3-g][1,4]benzodioxine-8,3′-indol]-2′(1′H)-one] | 158 to 166 | 0.001 to 0.1 | < 50 | < 0.3 | – |
| O=C1N(CC2CN(Cc3ccccc3)CCO2)c2ccccc2C12COc1cc3c(cc12)CCO3 (stereo not drawn) [Example 4.29, 1′-[(4-benzylmorpholin-2-yl)methyl]-5,6-dihydrospiro[benzo[1,2-b:5,4-b′]difuran-3,3′-indol]-2′(1′H)-one] | 65 to 70 | 1 to 10 | > 50 | > 0.3 | – |
| O=C1N(C[C@@H]2COCCO2)c2ccccc2[C@]12COc1cc3c(cc12)OCCO3 [Example 8.8, (8S)-1′-[(2R)-1,4-dioxan-2-ylmethyl]-2,3-dihydrospiro[furo[2,3-g][1,4]benzodioxine-8,3′-indol]-2′(1′H)-one] | 207 to 210 | 0.001 to 0.1 | < 50 | < 0.3 | – |
| O=C1N(C[C@H]2COCCO2)c2ccccc2[C@@]12COc1cc3c(cc12)OCCO3 [Example 8.6, (8R)-1′-[(2S)-1,4-dioxan-2-ylmethyl]-2,3-dihydrospiro[furo[2,3-g][1,4]benzodioxine-8,3′-indol]-2′(1′H)-one] | 207 to 209 | 1 to 10 | < 50 | > 0.3 | – |
| O=C1N(Cc2ccc3nonc3c2)c2ccccc2C12COc1cc3c(cc12)CCO3 (stereo not drawn) [Example 4.27, 1′-(2,1,3-benzoxadiazol-5-ylmethyl)-5,6-dihydrospiro[benzo[1,2-b:5,4-b′]difuran-3,3′-indol]-2′(1′H)-one] | 169 to 171 | 0.001 to 0.1 | > 50 | > 0.3 | – |
| CN(C)C(=O)c1ccc(CN2C(=O)C3(COc4cc5c(cc43)OCCO5)c3ccccc32)o1 (stereo not drawn) [Example 11.33, N,N-dimethyl-5-[(2′-oxo-2,3-dihydrospiro[furo[2,3-g][1,4]benzodioxine-8,3′-indol]-1′(2′H)-yl)methyl]furan-2-carboxamide] | 224 to 226 | – | > 50 | < 0.3 | 0.1 to 1 |
| O=C1N(Cc2ccccn2)c2ccccc2[C@@]12COc1cc3c(cc12)CCO3 [Example 5.4, (3R)-1-(pyridin-2-ylmethyl)-5,6-dihydrospiro[benzo[1,2-b:5,4-b′]difuran-3,3′-indol]-2′(1′H)-one] | 154 to 156 | 1 to 10 | < 50 | > 0.3 | – |
| O=C1N(Cc2ccc3c(c2)OCCO3)c2ccccc2C12COc1cc3c(cc12)OCCO3 (stereo not drawn) [Example 4.48, 1-(2,3-dihydro-1,4-benzodioxin-6-ylmethyl)-2,3-dihydrospiro[furo[2,3-g][1,4]benzodioxine-8,3′-indol]-2′(1′H)-one] | 120 to 123 | 0.001 to 0.1 | < 50 | < 0.3 | – |
| O=C1Nc2ccccc2C12COc1ccc3nonc3c12 (stereo not drawn) [Example 3.41, spiro[furo[3,2-e][2,1,3]benzoxadiazole-8,3′-indol]-2′(1′H)-one] | > 220 | 1 to 10 | < 50 | > 0.3 | – |
| O=C1N(Cc2ccc(C(F)(F)F)o2)c2ccccc2C12COc1cc3c(cc12)OCCCO3 (stereo not drawn) [Example 4.54, 1-{[5-(trifluoromethyl)furan-2-yl]methyl}-3,4-dihydro-2H-spiro[furo[2,3-h][1,5]benzodioxepine-9,3′-indol]-2′(1′H)-one] | 162 to 164 | 0.1 to 1 | > 50 | < 0.3 | – |
| O=C1Nc2cccc(-c3ccc(Oc4ccccc4)cc3)c2C12COc1cc3c(cc12)OCCO3 (stereo not drawn) [Example 3.35, 4′-(4-phenoxyphenyl)-2,3-dihydrospiro[furo[2,3-g][1,4]benzodioxine-8,3′-indol]-2′(1′H)-one] | 243 to 246 | 0.1 to 1 | > 50 | > 0.3 | – |
| Cc1noc2cc3c(cc12)C1(CO3)C(=O)N(Cc2ccccn2)c2ccccc21 (stereo not drawn) [Example 9.24, 3-methyl-1′-(pyridin-2-ylmethyl)spiro[furo[3,2-f][1,2]benzisoxazole-5,3′-indol]-2′(1′H)-one] | 142 to 143 | 0.001 to 0.1 | > 50 | > 0.3 | – |
| O=C1N(Cc2ccccn2)c2ccccc2C12COc1cc3c(cc12)OCCCO3 (stereo not drawn) [Example 4.55, 1′-(pyridin-2-ylmethyl)-3,4-dihydro-2H-spiro[furo[2,3-h][1,5]benzodioxepine-9,3′-indol]-2′(1′H)-one] | 122 to 123 | 0.1 to 1 | < 50 | > 0.3 | – |
| O=C1N(C[C@@H]2COCCO2)c2ccccc2C12COc1cc3c(cc12)OCCCO3 (stereo partly drawn) [Example 8.12, 1′-[(2R)-1,4-dioxan-2-ylmethyl]-3,4-dihydro-2H-spiro[furo[2,3-h][1,5]benzodioxepine-9,3′-indol]-2′(1′H)-one] | 144 to 147 | 0.1 to 1 | < 50 | > 0.3 | – |
| O=C1N(Cc2ccc(C(F)(F)F)o2)c2ccccc2[C@]12COc1cc3c(cc12)OCCO3 [Example 4.50, (S)-1′-{[5-(trifluoromethyl)furan-2-yl]methyl}-2,3-dihydrospiro[furo[2,3-g][1,4]benzodioxine-8,3′-indol]-2′(1′H)-one] | 53 to 56 | 0.001 to 0.1 | > 50 | < 0.3 | – |
| Cc1nc(-c2ccc3c(c2)OCC32C(=O)N(Cc3ccccn3)c3ccccc32)no1 (stereo not drawn) [Example 11.85, 6-(5-methyl-1,2,4-oxadiazol-3-yl)-1′-(pyridin-2-ylmethyl)spiro[1-benzofuran-3,3′-indol]-2′(1′H)-one] | 147 to 148 | – | < 50 | > 0.3 | 0.1 to 1 |
| COCCOCCN1C(=O)C2(COc3cc4c(cc32)OCCO4)c2cc3c(cc21)OCCO3 (stereo not drawn) [Example 2.65, 6-[2-(2-methoxyethoxy)ethyl]-2,2′,3,3′-tetrahydrospiro[1,4-dioxino[2,3-f]indole-8,8′-furo[2,3-g][1,4]benzodioxin]-7(6H)-one] | 146 to 148 | 1 to 10 | < 50 | > 0.3 | – |
| O=C1N(Cc2ccncn2)c2ccccc2C12COc1cc3c(cc12)CCO3 (stereo not drawn) [Example 9.6, 1-(pyrimidin-4-ylmethyl)-5,6-dihydrospiro[benzo[1,2-b:5,4-b′]difuran-3,3′-indol]-2′(1′H)-one] | 158 to 160 | 0.001 to 0.1 | < 50 | > 0.3 | – |
| O=C1N(Cc2ccc3nsnc3c2)c2ccccc2C12COc1cc3c(cc12)CCO3 (stereo not drawn) [Example 4.28, 1′-(2,1,3-benzothiadiazol-5-ylmethyl)-5,6-dihydrospiro[benzo[1,2-b:5,4-b′]difuran-3,3′-indol]-2′(1′H)-one] | 162 to 164 | 0.001 to 0.1 | > 50 | < 0.3 | – |
| Cc1nc(-c2cccc(CN3C(=O)C4(COc5cc6c(cc54)CCO6)c4ccccc43)c2)no1 (stereo not drawn) [Example 11.27, 1′-[3-(5-methyl-1,2,4-oxadiazol-3-yl)benzyl]-5,6-dihydrospiro[benzo[1,2-b:5,4-b′]difuran-3,3′-indol]-2′(1′H)-one] | 209 to 213 | – | > 50 | < 0.3 | 0.001 to 0.1 |
| O=C1N(Cc2ncccn2)c2ccccc2[C@]12COc1cc3c(cc12)OCCO3 [Example 5.18, (8S)-1′-(pyrimidin-2-ylmethyl)-2,3-dihydrospiro[furo[2,3-g][1,4]benzodioxine-8,3′-indol]-2′(1′H)-one] | 210 to 212 | 0.001 to 0.1 | < 50 | < 0.3 | – |
| O=C1N(Cc2ccccn2)c2cccc(-c3ccc(Oc4ccccc4)cc3)c2C12COc1cc3c(cc12)OCCO3 (stereo not drawn) [Example 4.103, 4′-(4-phenoxyphenyl)-1′-(pyridin-2-ylmethyl)-2,3-dihydrospiro[furo[2,3-g][1,4]benzodioxine-8,3′-indol]-2′(1′H)-one] | 196 to 199 | 0.1 to 1 | < 50 | < 0.3 | – |
| O=C1Nc2cccc(-c3cnc4ccccc4c3)c2C12COc1cc3c(cc12)OCCO3 (stereo not drawn) [Example 3.34, 4′-quinolin-3-yl-2,3-dihydrospiro[furo[2,3-g][1,4]benzodioxine-8,3′-indol]-2′(1′H)-one] | 221 to 224 | 0.1 to 1 | > 50 | > 0.3 | – |
